From US8759051B2, “Control of contaminant microorganisms in fermentation processes with peroxygen-releasing compounds” (E I du Pont de Nemours and Company, priority 2010, dated 2014)
Where “and” joins values, the source holds several entries; their conditions need not be identical. Identical values can stand only once.

Assay: Stability of peroxygen-releasing compounds during storage at 40° C., iodometric titration of hydrogen peroxide (Example 4)
Assay type: physicochemical
Method: A dry oven was used to store samples of the peroxygen-releasing compounds at 40° C. The oven was allowed to equilibrate overnight. Two-gram duplicate samples of each of the following peroxygen-releasing compounds were dispensed into aluminum weighing dishes: sodium percarbonate (Alfa Aesar, Ward Hill, Mass.), sodium percarbonate FB 400 (Solvay Chemicals, Inc., Houston, Tex.), sodium percarbonate FB […] (Solvay Chemicals, Inc.), calcium peroxide (Sigma-Aldrich Co., St. […] After six days, samples were analyzed for levels of hydrogen peroxide using standard iodometric titration.

% Remaining H2O2 Day 0: 100%
% Remaining H2O2 Day 6: 99%
% Remaining H2O2 Day 14: 99%
% H2O2 Day 0 (before storage, duplicate samples, listed as Sodium percarbonate (Alfa Aesar)): 27.48% and 27.38%
% H2O2 Day 6 (storage at 40° C. in dry oven, day 6, duplicate samples, listed as Sodium percarbonate (Alfa Aesar)): 27.12% and 27.05%
% H2O2 Day 14 (storage at 40° C. in dry oven, day 14, duplicate samples, listed as Sodium percarbonate (Alfa Aesar)): 27.11% and 26.99%
SMILES: O=C([O-])[O-].O=C([O-])[O-].OO.OO.OO.[Na+].[Na+].[Na+].[Na+] [Sodium percarbonate, sodium percarbonate]
